According to patent US10870647B2, “Imidazopyridine derivative, method for preparing same, and pharmaceutical composition containing same as active ingredient for preventing or treating cancer” (DAEGU-GYEONGBUK MEDICAL INNOVATION FOUNDATION, priority 2016, dated 2020):

Tests used:
Test in all cases: Kinase selectivity, scanMAX Kinase assay panel (DiscoverX), % control at 1 uM
Format in all cases: binding
[1] = target: T1, scanMAX Kinase assay panel (Homo sapiens, UniProt P21802); settings: FGFR2; 1 uM; read-out: Percent Control (%)
T1 construct: purchased DiscoverX
Procedure, shortened: (§1)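 1 uM cpd (DMSO) per kinase; % ctrl = [cpd − pos ctrl]/[neg ctrl − pos ctrl] × 100; hit if <35.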

[2] = target: T2, scanMAX Kinase assay panel (Homo sapiens, UniProt P49759); settings: CLK1; 1 uM; read-out: Percent Control (%)
T2 construct: purchased DiscoverX
T2 sequence (P49759 whole entry): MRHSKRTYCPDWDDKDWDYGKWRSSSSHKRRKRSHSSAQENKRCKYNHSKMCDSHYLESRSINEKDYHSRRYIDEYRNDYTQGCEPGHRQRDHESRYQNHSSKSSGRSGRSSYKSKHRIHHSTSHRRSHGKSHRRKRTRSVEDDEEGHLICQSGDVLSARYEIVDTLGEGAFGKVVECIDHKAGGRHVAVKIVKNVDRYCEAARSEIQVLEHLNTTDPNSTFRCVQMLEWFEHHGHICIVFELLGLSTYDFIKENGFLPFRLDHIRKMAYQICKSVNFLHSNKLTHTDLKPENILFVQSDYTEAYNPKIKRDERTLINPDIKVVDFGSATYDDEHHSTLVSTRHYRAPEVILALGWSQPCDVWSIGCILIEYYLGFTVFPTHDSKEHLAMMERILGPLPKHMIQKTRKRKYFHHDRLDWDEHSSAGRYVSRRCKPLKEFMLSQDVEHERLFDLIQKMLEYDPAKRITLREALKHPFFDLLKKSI
Procedure, shortened: as §1

[3] = target: T3, scanMAX Kinase assay panel (Homo sapiens, UniProt Q8TF76); settings: HASPIN; 1 uM; read-out: Percent Control (%)
T3 construct: purchased DiscoverX
T3 sequence (Q8TF76 1-798): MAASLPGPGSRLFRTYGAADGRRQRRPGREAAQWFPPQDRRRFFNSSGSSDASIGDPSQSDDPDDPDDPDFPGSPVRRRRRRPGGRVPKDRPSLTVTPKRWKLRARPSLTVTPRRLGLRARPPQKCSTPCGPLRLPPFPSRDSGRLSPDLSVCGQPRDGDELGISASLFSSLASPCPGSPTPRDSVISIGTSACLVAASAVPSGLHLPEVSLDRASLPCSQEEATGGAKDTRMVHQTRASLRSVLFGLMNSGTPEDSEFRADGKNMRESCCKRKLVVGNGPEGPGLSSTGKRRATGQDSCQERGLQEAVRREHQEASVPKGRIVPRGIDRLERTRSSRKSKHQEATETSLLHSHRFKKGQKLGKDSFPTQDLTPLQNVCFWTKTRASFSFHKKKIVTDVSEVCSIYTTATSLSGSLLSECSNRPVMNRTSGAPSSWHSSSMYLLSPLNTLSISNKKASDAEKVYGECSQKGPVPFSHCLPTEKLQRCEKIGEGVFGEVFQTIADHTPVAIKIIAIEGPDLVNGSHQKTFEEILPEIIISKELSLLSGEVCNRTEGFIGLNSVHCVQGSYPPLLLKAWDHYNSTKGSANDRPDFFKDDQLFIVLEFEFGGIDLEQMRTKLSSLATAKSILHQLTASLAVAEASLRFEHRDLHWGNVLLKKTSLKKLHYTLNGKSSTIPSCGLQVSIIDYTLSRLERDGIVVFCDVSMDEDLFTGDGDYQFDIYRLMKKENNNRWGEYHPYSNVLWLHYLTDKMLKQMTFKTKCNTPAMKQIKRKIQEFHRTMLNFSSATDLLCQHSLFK
Procedure, shortened: as §1

[4] = target: T4, scanMAX Kinase assay panel (Homo sapiens, UniProt P07947); settings: YES; 1 uM; read-out: Percent Control (%)
T4 construct: purchased DiscoverX
T4 sequence (P07947 whole entry): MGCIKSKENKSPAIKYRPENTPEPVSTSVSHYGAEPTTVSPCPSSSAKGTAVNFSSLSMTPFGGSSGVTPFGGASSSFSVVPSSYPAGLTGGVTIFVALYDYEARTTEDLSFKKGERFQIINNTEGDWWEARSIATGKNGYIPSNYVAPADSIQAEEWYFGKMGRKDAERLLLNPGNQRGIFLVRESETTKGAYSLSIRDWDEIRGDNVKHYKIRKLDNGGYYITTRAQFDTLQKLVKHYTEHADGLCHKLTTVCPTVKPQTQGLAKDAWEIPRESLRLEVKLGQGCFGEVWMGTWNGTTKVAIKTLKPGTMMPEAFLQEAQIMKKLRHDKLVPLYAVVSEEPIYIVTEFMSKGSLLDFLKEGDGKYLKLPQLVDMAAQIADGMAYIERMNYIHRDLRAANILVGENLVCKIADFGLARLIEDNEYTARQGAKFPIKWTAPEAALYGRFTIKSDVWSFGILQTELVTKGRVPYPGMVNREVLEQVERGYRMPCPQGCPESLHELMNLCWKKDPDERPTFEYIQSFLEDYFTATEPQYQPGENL
Procedure, shortened: as §1

[5] = target: T5, scanMAX Kinase assay panel (Homo sapiens, UniProt P42685); settings: FRK; 1 uM; read-out: Percent Control (%)
T5 construct: purchased DiscoverX
T5 sequence (P42685 whole entry): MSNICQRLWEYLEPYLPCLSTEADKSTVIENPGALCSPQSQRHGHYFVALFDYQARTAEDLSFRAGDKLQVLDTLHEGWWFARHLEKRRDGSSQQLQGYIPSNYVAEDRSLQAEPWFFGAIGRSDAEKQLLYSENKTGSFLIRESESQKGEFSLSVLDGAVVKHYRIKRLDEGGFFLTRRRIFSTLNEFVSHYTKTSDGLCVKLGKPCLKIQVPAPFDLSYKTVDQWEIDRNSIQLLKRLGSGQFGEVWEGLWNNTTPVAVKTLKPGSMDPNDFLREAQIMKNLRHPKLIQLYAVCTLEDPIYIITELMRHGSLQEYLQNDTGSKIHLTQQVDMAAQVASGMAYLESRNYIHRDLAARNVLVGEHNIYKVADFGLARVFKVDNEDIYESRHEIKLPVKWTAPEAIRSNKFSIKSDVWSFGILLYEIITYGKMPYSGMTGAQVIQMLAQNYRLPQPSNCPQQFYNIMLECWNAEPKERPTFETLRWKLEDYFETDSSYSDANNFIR
Procedure, shortened: as §1

[6] = target: T6, scanMAX Kinase assay panel (Homo sapiens, UniProt P36507); settings: MEK2; 1 uM; read-out: Percent Control (%)
T6 construct: purchased DiscoverX
Procedure, shortened: as §1

[7] = target: T7, scanMAX Kinase assay panel (Homo sapiens, UniProt O14578); settings: CIT; 1 uM; read-out: Percent Control (%)
T7 construct: purchased DiscoverX
Procedure, shortened: as §1

[8] = target: T8, scanMAX Kinase assay panel (Homo sapiens, UniProt P00519, E255K); settings: ABL1 (E255K)-phosphorylated; 1 uM; read-out: Percent Control (%)
T8 construct: purchased DiscoverX
T8 sequence (P00519 whole entry E255K): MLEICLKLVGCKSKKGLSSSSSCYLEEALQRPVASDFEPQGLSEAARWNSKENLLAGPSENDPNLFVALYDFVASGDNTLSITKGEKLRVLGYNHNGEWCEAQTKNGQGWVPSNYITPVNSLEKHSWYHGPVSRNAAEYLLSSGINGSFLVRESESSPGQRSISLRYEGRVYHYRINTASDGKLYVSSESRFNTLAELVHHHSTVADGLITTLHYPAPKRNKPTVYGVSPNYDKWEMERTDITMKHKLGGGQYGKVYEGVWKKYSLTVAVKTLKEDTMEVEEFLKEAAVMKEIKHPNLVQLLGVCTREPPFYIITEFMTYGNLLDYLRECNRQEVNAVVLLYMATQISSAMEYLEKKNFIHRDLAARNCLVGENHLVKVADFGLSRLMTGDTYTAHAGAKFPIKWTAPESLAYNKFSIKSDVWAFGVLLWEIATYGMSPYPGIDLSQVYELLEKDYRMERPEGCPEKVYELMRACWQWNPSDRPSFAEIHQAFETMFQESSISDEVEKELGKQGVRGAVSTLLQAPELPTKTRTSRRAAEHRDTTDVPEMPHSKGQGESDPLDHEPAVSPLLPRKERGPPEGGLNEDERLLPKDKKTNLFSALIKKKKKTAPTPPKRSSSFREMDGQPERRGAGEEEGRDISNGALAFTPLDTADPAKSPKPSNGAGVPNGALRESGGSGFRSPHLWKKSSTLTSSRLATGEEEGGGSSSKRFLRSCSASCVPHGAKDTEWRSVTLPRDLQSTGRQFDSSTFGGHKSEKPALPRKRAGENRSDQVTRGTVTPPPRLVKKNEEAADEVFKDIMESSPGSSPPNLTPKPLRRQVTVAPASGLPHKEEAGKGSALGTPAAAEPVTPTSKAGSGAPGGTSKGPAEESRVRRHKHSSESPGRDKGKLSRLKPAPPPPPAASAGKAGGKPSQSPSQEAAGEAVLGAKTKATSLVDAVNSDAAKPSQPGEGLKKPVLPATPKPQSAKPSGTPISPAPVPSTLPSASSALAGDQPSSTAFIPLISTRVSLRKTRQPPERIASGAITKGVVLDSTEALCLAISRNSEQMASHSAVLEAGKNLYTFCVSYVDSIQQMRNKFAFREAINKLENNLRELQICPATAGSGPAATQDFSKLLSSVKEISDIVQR
Procedure, shortened: as §1

[9] = target: T9, scanMAX Kinase assay panel (Homo sapiens, UniProt O14757); settings: CHEK1; 1 uM; read-out: Percent Control (%)
T9 construct: purchased DiscoverX
T9 sequence (O14757 1-476): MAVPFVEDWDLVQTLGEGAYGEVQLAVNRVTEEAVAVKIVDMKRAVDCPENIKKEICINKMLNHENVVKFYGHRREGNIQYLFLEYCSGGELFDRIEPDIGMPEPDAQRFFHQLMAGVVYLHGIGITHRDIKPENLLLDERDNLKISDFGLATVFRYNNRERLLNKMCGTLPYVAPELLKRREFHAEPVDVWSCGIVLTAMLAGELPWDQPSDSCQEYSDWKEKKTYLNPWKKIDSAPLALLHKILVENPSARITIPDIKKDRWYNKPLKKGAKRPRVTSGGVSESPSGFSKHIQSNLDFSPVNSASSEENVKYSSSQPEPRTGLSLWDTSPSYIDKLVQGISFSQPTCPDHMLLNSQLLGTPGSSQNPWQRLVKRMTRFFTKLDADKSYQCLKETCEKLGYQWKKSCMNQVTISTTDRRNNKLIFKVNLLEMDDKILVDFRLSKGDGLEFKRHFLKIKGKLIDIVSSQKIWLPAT
Procedure, shortened: as §1

[10] = target: T10, scanMAX Kinase assay panel (Homo sapiens, UniProt P08581, Y1235D); settings: MET (Y1235D); 1 uM; read-out: Percent Control (%)
T10 construct: purchased DiscoverX
Procedure, shortened: as §1

[11] = target: T11, scanMAX Kinase assay panel (Homo sapiens, UniProt P09769); settings: FGR; 1 uM; read-out: Percent Control (%)
T11 construct: purchased DiscoverX
T11 sequence (P09769 whole entry): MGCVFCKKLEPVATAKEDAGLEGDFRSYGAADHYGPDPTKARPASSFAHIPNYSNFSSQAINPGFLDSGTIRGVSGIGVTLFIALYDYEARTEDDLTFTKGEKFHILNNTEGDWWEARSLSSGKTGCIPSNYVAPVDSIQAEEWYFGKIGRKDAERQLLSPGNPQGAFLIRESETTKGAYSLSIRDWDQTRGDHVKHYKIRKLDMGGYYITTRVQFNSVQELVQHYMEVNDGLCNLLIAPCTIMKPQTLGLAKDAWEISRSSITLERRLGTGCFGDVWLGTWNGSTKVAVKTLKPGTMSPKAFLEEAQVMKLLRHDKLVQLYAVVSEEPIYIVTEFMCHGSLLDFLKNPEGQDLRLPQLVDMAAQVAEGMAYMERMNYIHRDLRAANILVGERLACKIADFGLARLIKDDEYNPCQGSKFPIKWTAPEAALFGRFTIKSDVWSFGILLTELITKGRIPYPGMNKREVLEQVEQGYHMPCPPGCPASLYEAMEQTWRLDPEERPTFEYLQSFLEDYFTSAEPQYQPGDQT
Procedure, shortened: as §1

[12] = target: T12, scanMAX Kinase assay panel (Homo sapiens, UniProt Q00535); settings: CDK5; 1 uM; read-out: Percent Control (%)
T12 construct: purchased DiscoverX
T12 sequence (Q00535 whole entry): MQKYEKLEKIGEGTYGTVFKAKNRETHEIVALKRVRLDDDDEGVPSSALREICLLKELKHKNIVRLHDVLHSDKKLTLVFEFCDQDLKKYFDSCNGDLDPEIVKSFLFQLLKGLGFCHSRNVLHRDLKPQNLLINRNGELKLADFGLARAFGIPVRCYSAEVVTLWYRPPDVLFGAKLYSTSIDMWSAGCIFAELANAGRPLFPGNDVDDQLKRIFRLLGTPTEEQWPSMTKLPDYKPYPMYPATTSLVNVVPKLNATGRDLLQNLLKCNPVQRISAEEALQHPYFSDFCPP
Procedure, shortened: as §1

[13] = target: T13, scanMAX Kinase assay panel (Homo sapiens, UniProt P22607, G697C); settings: FGFR3 (G697C); 1 uM; read-out: Percent Control (%)
T13 construct: purchased DiscoverX
T13 sequence (P22607 23-806 G697C): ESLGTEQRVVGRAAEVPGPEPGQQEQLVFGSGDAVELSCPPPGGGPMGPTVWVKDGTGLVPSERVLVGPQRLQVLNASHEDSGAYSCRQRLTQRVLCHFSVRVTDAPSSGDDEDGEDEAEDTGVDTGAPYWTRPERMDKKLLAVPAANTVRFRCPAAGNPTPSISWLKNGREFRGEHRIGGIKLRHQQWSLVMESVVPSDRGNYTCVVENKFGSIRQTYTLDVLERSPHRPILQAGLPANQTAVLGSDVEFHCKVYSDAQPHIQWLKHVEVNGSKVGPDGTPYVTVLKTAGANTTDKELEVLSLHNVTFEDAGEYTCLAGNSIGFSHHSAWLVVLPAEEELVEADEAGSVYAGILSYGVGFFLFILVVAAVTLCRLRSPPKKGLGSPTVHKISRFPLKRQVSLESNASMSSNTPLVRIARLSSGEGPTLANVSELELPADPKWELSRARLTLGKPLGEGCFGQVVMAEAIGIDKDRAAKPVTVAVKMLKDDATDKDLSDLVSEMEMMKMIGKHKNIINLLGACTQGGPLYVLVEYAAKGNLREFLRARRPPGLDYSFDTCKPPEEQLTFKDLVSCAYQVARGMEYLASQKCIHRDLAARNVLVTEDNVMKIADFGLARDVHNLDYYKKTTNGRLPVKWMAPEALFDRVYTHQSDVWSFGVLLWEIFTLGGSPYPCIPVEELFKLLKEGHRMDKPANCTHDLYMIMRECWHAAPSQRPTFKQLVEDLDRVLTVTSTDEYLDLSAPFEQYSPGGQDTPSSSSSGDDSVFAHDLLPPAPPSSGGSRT
Procedure, shortened: as §1

[14] = target: T14, scanMAX Kinase assay panel (Homo sapiens, UniProt Q14680); settings: MELK; 1 uM; read-out: Percent Control (%)
T14 construct: purchased DiscoverX
Procedure, shortened: as §1

[15] = target: T15, scanMAX Kinase assay panel (Homo sapiens, UniProt Q15569); settings: TESK1; 1 uM; read-out: Percent Control (%)
T15 construct: purchased DiscoverX
T15 sequence (Q15569 whole entry): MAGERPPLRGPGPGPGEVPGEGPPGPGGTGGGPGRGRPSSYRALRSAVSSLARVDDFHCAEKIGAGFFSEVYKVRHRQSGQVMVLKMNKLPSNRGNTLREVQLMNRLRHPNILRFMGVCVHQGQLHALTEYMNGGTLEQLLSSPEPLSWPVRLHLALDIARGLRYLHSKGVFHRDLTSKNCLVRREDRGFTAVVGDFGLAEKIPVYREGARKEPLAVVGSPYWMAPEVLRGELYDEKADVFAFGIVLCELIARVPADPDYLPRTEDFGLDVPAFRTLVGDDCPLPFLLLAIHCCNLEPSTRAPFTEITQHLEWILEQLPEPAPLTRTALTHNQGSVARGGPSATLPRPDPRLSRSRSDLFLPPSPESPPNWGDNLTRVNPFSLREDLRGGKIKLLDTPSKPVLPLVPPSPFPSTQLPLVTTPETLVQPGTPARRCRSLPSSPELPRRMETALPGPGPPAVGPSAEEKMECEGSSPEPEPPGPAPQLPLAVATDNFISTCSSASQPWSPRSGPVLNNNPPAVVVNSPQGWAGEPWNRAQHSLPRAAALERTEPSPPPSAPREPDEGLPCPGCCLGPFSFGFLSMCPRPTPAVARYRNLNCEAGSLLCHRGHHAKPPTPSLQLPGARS
Procedure, shortened: as §1

Structure (SMILES)	remaining binding at 1 µM [1]	remaining binding at 1 µM [2]	remaining binding at 1 µM [3]	remaining binding at 1 µM [4]	remaining binding at 1 µM [5]	remaining binding at 1 µM [6]	remaining binding at 1 µM [7]	remaining binding at 1 µM [8]	remaining binding at 1 µM [9]	remaining binding at 1 µM [10]	remaining binding at 1 µM [11]	remaining binding at 1 µM [12]	remaining binding at 1 µM [13]	remaining binding at 1 µM [14]	remaining binding at 1 µM [15]
Cc1ccc(NC(=O)C2(C(=O)Nc3ccc(F)cc3)CC2)cc1C#Cc1cnc2c(Nc3cnn(C(C)C)c3)cccn12 [Example 78]	100%	79%	85%	100%	69%	97%	100%	84%	98%	82%	80%	100%	96%	91%	100%
Cc1cn(-c2cc(NC(=O)c3ccc(C)c(C#Cc4cnc5c(Nc6cnn(C)c6)cccn45)c3)cc(C(F)(F)F)c2)cn1 [Example 12, 4-methyl-N-(3-(4-methyl-1H-imidazol-1-yl)-5-(trifluoromethyl)phenyl)-3-((8-((1-methyl-1H-pyrazol-4-yl)amino)imidazo[1,2-a]pyridin-3-yl)ethynyl)benzamide]	11%	82%	100%	2%	14%	88%	0%	8%	100%	59%	4%	89%	34%	98%	81%
Cc1ccc(C(=O)Nc2ccc(CN3CCN(C)CC3)c(C(F)(F)F)c2)cc1C#Cc1cnc2c(Nc3cnn(C)c3)cccn12 [Example 1, 4-methyl-3-((8-((1-methyl-1H-pyrazol-4-yl)amino)imidazo[1,2-a]pyridin-3-yl)ethynyl)-N-(4-((4-methylpiperazin-1-yl)methyl)-3-(trifluoromethyl)phenyl)benzamide]	2%	25%	80%	1%	2%	76%	0%	0%	90%	61%	0%	30%	3%	9%	26%
